Results from patent US7786142B2, “Heterocyclic compounds as pSTAT3/IL-6 inhibitors” (Orchid Research Laboratories, Ltd., priority 2005, dated 2010).

Columns and labels:
NCIH460 cells = test: Anti-cancer screen (MTT), NCIH460 cells; format: cell-based; conditions: Homo sapiens, NCI-H460, NCIH460, 48 hours, concentrations tested 0.01-100 μM
Summary of the method: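 Cells (5000/well) in DMEM with 10% FBS were treated for 48 hours with 0.01, 0.1, 1, 10 and 100 μM compound in triplicate. MTT read at 570 nm gave percent growth relative to untreated controls and pre-dose T0 wells, from which GI50, TGI and LC50 were derived.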

IL-6 = IL-6 in culture supernatants of NCIH 460 cells (ELISA); format: cell-based, Human
Description: Human Lung Cancer cell line (NCIH 460) is used for IL-6 measurement. 5000 cells/well were seeded in a 96 well plate and incubated in CO2 incubator at 37° C. for 24 hours. After 24 hours of incubation the medium from all wells were completed removed and added 100 μl of fresh DMEM containing 10% FCS. 100 μl of different concentrations of the drug were added and incubated for 5 hours in CO2 incubator at 37° C. After 5 hours of incubation the supernatants were collected and stored at −80° C. The concentration of IL-6 in the supernatant was measured using ELISA kit and the IC50 value of the compound was determined from the dose response curve, (See Table II).

NCI H460 Xenograft = test: In-vivo anti-cancer activity, NCI H460 xenograft model; set-up: species or system SCID mice; conditions: NCI H460 Xenograft model, in words
Description: Experiments were carried out using 6-8 week old female athymic SCID (Severe Combined Immune Deficient) mice. The mice were kept in laminar flow rooms (housed in Individually Ventilated Cages) at constant temperature and humidity. They had free access to food and water. Tumors were obtained form ATCC and maintained by s.c. passages of tumor fragments (about 2×2×2 mm) in healthy mice according to standard reported procedures. Each experimental group included six/eight mice bearing bilateral tumors. Tumors were implanted on day 0, and tumor growth was followed by biweekly measurements of tumor diameters with a Vernier caliper. Tumor Volume (TV) was calculated according to the following formula: TV (mm^3)=d^2 XD/2, where d and D are the shortest diameter and the longest diameter of the tumor, respectively. The drug treatment started when tumors were just measurable (Mean TV=150-200 mm^3).
All test compound/standard drugs were delivered by gavage in a volume of 10 ml/kg. Drugs were administered every day for single time to a period of 21 days. Control mice were treated with the drug solvent/vehicle. Tumor size is measured every alternate days and body weight is recorded daily.
• a) Tumor Volume Inhibition (TVI): A TVI value higher than 80% is indicative of active compounds. • b) T/C % is also another indicator for the activity. A reproducible 20% T/C is considered as therapeutically active. • c) Log Cell Kill (LCK): A LCK value greater than 1 is indicative of active compounds. • d) Relative Tumor Volume (RTV), Tumor Delay and % Tumor volume change are also considered as valuable additional parameters for assessment. • e) Toxic effects of drug treatment were assessed by Body Weight Loss % • f) Lethal toxicity was defined as any death in treated groups occurring before any control death. Mice were inspected daily for mortality and toxic clinical signs.

Compound: COc1ccc(CNC[C@H](O)COc2cccc3[nH]c4ccccc4c23)c(OC)c1 [Example 25, (2S)-1-(9H-carbazol-4-yloxy)-3-[(2,4-dimethoxybenzyl)amino]propan-2-ol]
- GI50 (NCIH460 cells): 0.67 µM
- IC (TGI) (NCIH460 cells): 55 µM
- CC50 (NCIH460 cells; read-out: LC50 (the source's name)): 68 µM
- inhibition at 0.1 µM (IL-6; Homo sapiens, NCI-H460, 0.1 μM, NCIH 460, 5 hours): 36%
- inhibition at 1 µM (IL-6; Homo sapiens, NCI-H460, 1 μM, NCIH 460, 5 hours): 50.9%
- IC50 (IL-6; Homo sapiens, NCI-H460, NCIH 460, 5 hours, read-out: IL-6 Inhibition IC50): 0.78 µM
- IL-6 inhibition (IL-6; in words): very good IL-6 inhibition
- in-vivo anti-cancer activity (NCI H460 Xenograft): good anti-cancer activity
